These results are taken from ChEMBL document CHEMBL1133031, “Salicylamide inhibitors of influenza virus fusion” (Bioorg Med Chem Lett, 2000).

Broadly, the CC50 is the concentration giving 50% cytotoxicity. A word on the EC50: it is the concentration giving half of the maximal effect.

Each structure is given as a SMILES string. Converted amounts (≈) assume the structure as drawn. Where only a bound is given, the exact number is not on record here.

Assay [1] is described as follows: The cytotoxic activity was evaluated in MDBK cells. The class given is functional. As to conditions: Bos taurus; call rule not given here.
The nature of assay [2]: Tested for activity against A/WSN/33 influenza strain-induced toxicity in MDBK cells by using cell protection assay. The class given is functional, organism-based.
The nature of assay [3]: Tested for activity against A/WSN/33 influenza strain-induced toxicity in MDBK cells by using cell protection assay; Not active. It is filed as functional, organism-based.
The nature of assay [4]: The compound was tested for activity against A/WSN/33 influenza strain-induced toxicity in MDBK cells by using cell protection assay; Not active at 50 ug/mL. It is filed as functional, cell-based, Bos taurus.

In turn, `Cc1ccc(O)c(C(=O)NCCCN2[C@@H](C)CC[C@@H]3CCCC[C@@H]32)c1` showed a half-maximal cytotoxic concentration (CC50) in assay [1] greater than 100 µg/mL. The compound further came in with an EC50 in assay [2] of 6 µg/mL (≈ 17.4 µM).
The like results for `Cc1ccc(O)c(C(=O)NCCCN2[C@H](C)CC[C@@H]3CCCC[C@@H]32)c1` were, in that order, 35 µg/mL (≈ 102 µM) and 0.19 µg/mL (≈ 0.552 µM).
In the same order, the values of `Cc1ccc(O)c(C(=O)NCCCN2[C@H](C)CCC[C@@H]2C)c1` are greater than 100 µg/mL and 1.8 µg/mL (≈ 5.91 µM).
In the same order, the values of `Cc1ccc(O)c(C(=O)NCCCN2CCC[C@@H]3CCCC[C@@H]32)c1` are greater than 100 µg/mL and 0.65 µg/mL (≈ 1.97 µM).
As to `Cc1ccc(O)c(C(=O)NC2CC3CCC(C2)N3C)c1` (centres undefined), in assay [1], the CC50 was determined as 100 µg/mL (≈ 364 µM). Further, the concentration giving a half-maximal response (EC50) entry in assay [3] is “Not Active”.
`Cc1ccc(O)c(C(=O)NCCCCN2[C@H](C)CCC[C@@H]2C)c1` yielded a CC50 in assay [1] greater than 100 µg/mL. For the same compound, in assay [2], the EC50 was 0.7 µg/mL (≈ 2.2 µM).
The like results for `CC1CC[C@@H]2CCCC[C@@H]2N1CCCNC(=O)c1cc(Cl)ccc1O` (some centres undefined) were, in that order, 40 µg/mL (≈ 110 µM) and 0.09 µg/mL (≈ 0.247 µM).
The like results for `Cc1ccc(O)c(C(=O)NCCCN2CCC[C@@H]3CCCC[C@H]32)c1` were, in that order, 60 µg/mL (≈ 182 µM) and 0.35 µg/mL (≈ 1.06 µM).
The like results for `Cc1ccc(O)c(C(=O)NCCCN2C(C(C)C)CC[C@@H]3CCCC[C@@H]32)c1` (some centres undefined) were, in that order, 80 µg/mL (≈ 215 µM) and 0.25 µg/mL (≈ 0.671 µM).
Turning to `O=C(NCCCN1CCC[C@@H]2CCCC[C@H]21)c1cc(Cl)ccc1O`, it took 45 µg/mL (≈ 128 µM) to reach half-maximal cytotoxicity in assay [1] (CC50). It took 1.4 µg/mL (≈ 3.99 µM) to reach a half-maximal effect in assay [2] (EC50).
In the same order, the values of `Cc1ccc(O)c(C(=O)NCCCN(C(C)C)C(C)C)c1` are greater than 100 µg/mL and 0.9 µg/mL (≈ 3.08 µM).
The like results for `C[C@@H]1CCC[C@@H]2C[C@@H](NC(=O)c3cc(Cl)ccc3O)CCN21` were, in that order, greater than 200 µg/mL and 0.8 µg/mL (≈ 2.48 µM).
In the same order, the values of `C[C@@H]1CCC[C@H](C)N1CCCNC(=O)c1cc(Cl)ccc1O` are 30 µg/mL (≈ 92.3 µM) and 4.5 µg/mL (≈ 13.9 µM).
The compound `Cc1ccc(O)c(C(=O)NCCCCN2CCC[C@@H]3CCCC[C@@H]32)c1` returned a CC50 in assay [1] of 30 µg/mL (≈ 87.1 µM). In addition, in assay [3], the EC50 entry is “Not Active”.
For the compound `C[C@@H]1CCC[C@H](C)N1CCCCNC(=O)c1cc(Cl)ccc1O`, the CC50 in assay [1] was determined as 100 µg/mL (≈ 295 µM). In assay [2], this compound displayed a half-maximal effective concentration (EC50) of 1 µg/mL (≈ 2.95 µM).
The compound `Cc1ccc(O)c(C(=O)NCCCCN2C(C)CC[C@@H]3CCCC[C@@H]32)c1` (some centres undefined) came in with a CC50 in assay [1] of 90 µg/mL (≈ 251 µM). Moreover, in assay [3], the EC50 entry is “Not Active”.
The like results for `Cc1ccc(O)c(C(=O)NCCCN2CC(C)C[C@@H]3CCCC[C@@H]32)c1` (some centres undefined) were, in that order, 9.5 µg/mL (≈ 27.6 µM) and “Not Active”.
For `Cc1ccc(O)c(C(=O)NCCCN2CCC(C)[C@@H]3CCCC[C@@H]32)c1` (some centres undefined), the cytotoxic concentration (CC50) in assay [1] was found to be 100 µg/mL (≈ 290 µM). The half-maximal effective concentration (EC50) entry in assay [3] is “Not Active”.
With `CCC(C)N1CCC(NC(=O)c2cc(C)ccc2O)CC1` (centres undefined), in assay [4], the EC50 entry is on record as “Not Active”. The same compound returned a cytotoxic concentration (CC50) in assay [1] of 100 µg/mL (≈ 344 µM).
The compound `CN1C2CCC1CC(NC(=O)c1cc(Cl)ccc1O)C2` (centres undefined) registered a 50% cytotoxic concentration (CC50) in assay [1] of 100 µg/mL (≈ 339 µM). For the same compound, the EC50 entry in assay [3] is reported as “Not Active”.
`O=C(NCCCN1CCC[C@@H]2CCCC[C@@H]21)c1cc(Cl)ccc1O` displayed a CC50 in assay [1] of 43 µg/mL (≈ 123 µM). For the same compound, in assay [2], the EC50 was 1.4 µg/mL (≈ 3.99 µM).
As to `Cc1ccc(O)c(C(=O)NCCCN2C(C)CC[C@@H]3CCCC[C@H]32)c1` (single isomer, unassigned), it took 30 µg/mL (≈ 87.1 µM) to reach half-maximal cytotoxicity in assay [1] (CC50). The same compound displayed a half-maximal effective concentration (EC50) in assay [2] of 1.5 µg/mL (≈ 4.35 µM).
